Laboratory results: the supplement of paper PMC8967900

Tested on: REH
Experiment: selective drug sensitivity score (sDSS, relative to normal bone marrow) (sDSS (score)); higher = more potent and effective on the cell line relative to normal bone marrow cells
Settings: 72 h
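Note: ALL cell lines in 384-well plates, five doses spanning 10,000-fold, each plate scaled between vehicle and 100 µmol/L benzalkonium chloride controls, sDSS an adapted area-under-curve metric.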

In order of rising “selective drug sensitivity score” value:
1. COc1cc(N2CCC(N3CCN(C)CC3)CC2)ccc1Nc1ncc(Cl)c(Nc2ccccc2P(C)(C)=O)n1 [Brigatinib] (top concentration 1000 nM)  -3.34
2. CC(C)c1cc(C(=O)N2Cc3ccc(CN4CCN(C)CC4)cc3C2)c(O)cc1O [Onalespib] (top concentration 2500 nM)  -0.08
3. CCN(CC)Cc1ccc2cc(COC(=O)Nc3ccc(C(=O)NO)cc3)ccc2c1 [Givinostat] (top concentration 1000 nM)  0.2
4. CNC(=O)c1cc(Oc2ccc(NC(=O)Nc3ccc(Cl)c(C(F)(F)F)c3)cc2)ccn1 [Sorafenib] (top concentration 1000 nM)  0.2
5. CCN1C(=O)CNc2ncc(-c3ccc(-c4nc[nH]n4)nc3C)nc21 [CC-115] (top concentration 10000 nM)  0.44
6. Cn1nccc1Nc1nccc(-c2ccn([C@H](CO)c3ccc(Cl)c(F)c3)c(=O)c2)n1 [Ravoxertinib] (top concentration 10000 nM)  1.2
7. COCCNCc1ccc(-c2cc3nccc(Oc4ccc(NC(=S)NC(=O)Cc5ccc(F)cc5)cc4F)c3s2)nc1 [Glesatinib] (top concentration 2500 nM)  4.44
8. CC1=NN(c2ccc(C(=O)O)cc2)C(=O)C1=Cc1ccc(-c2cc(C)c(C)cc2[N+](=O)[O-])o1 [C646] (top concentration 25000 nM)  4.44
9. CN1CCN(c2nc(C3=C(c4c[nH]c5ccccc45)C(=O)NC3=O)c3ccccc3n2)CC1 [Sotrastaurin] (top concentration 10000 nM)  4.8
10. COc1ccc(S(=O)(=O)Nc2cccnc2Nc2ccc(O)cc2)cc1 [ABT-751] (top concentration 10000 nM)  15.4

Tested on: SEM cells
Experiment: as above
Settings: 72 h

In order of rising “selective drug sensitivity score” value:
1. N[C@@H]1CCCN(c2c(/C=C3\SC(=O)NC3=O)cccc2-c2ccccc2)C1 [AZD1208] (top concentration 10000 nM)  -4.4
2. Cc1cc(Nc2ncc(Cl)c(Nc3ccccc3S(=O)(=O)C(C)C)n2)c(OC(C)C)cc1C1CCNCC1 [Ceritinib] (top concentration 2500 nM)  -3.44
3. Cc1nc(Nc2ncc(C(=O)Nc3c(C)cccc3Cl)s2)cc(N2CCN(CCO)CC2)n1 [Dasatinib] (top concentration 1000 nM)  -2.4
4. Cn1cnc2c(F)c(Nc3ccc(Br)cc3F)c(C(=O)NOCCO)cc21 [Binimetinib] (top concentration 1000 nM)  -2.22
5. CC1=NN(c2ccc(C(=O)O)cc2)C(=O)C1=Cc1ccc(-c2cc(C)c(C)cc2[N+](=O)[O-])o1 [C646] (top concentration 25000 nM)  -0.26
6. C=CC(=O)N1CCC[C@@H](n2nc(-c3ccc(Oc4ccccc4)cc3)c3c(N)ncnc32)C1 [Ibrutinib] (top concentration 1000 nM)  0
7. CCN1C(=O)CNc2ncc(-c3ccc(-c4nc[nH]n4)nc3C)nc21 [CC-115] (top concentration 10000 nM)  0.04
8. Cn1nccc1Nc1nccc(-c2ccn([C@H](CO)c3ccc(Cl)c(F)c3)c(=O)c2)n1 [Ravoxertinib] (top concentration 10000 nM)  0.7
9. CC(C)c1cc(C(=O)N2Cc3ccc(CN4CCN(C)CC4)cc3C2)c(O)cc1O [Onalespib] (top concentration 2500 nM)  3.92
10. COc1cc(N2CCC(N3CCN(C)CC3)CC2)ccc1Nc1ncc(Cl)c(Nc2ccccc2P(C)(C)=O)n1 [Brigatinib] (top concentration 1000 nM)  4.06
11. CCN(CC)Cc1ccc2cc(COC(=O)Nc3ccc(C(=O)NO)cc3)ccc2c1 [Givinostat] (top concentration 1000 nM)  4.4
12. CN1CCN(c2nc(C3=C(c4c[nH]c5ccccc45)C(=O)NC3=O)c3ccccc3n2)CC1 [Sotrastaurin] (top concentration 10000 nM)  6.7
13. COc1cc(Nc2ncc(F)c(Nc3ccc4c(n3)N(COP(=O)(O)O)C(=O)C(C)(C)O4)n2)cc(OC)c1OC [Fostamatinib] (top concentration 2500 nM)  9.96
14. Sc1ncnc2nc[nH]c12 [Mercaptopurine] (top concentration 10000 nM)  12.6
15. CC(C)C[C@H](NC(=O)CNC(=O)c1cc(Cl)ccc1Cl)B(O)O [Ixazomib] (top concentration 1000 nM)  13.1
16. COCCNCc1ccc(-c2cc3nccc(Oc4ccc(NC(=S)NC(=O)Cc5ccc(F)cc5)cc4F)c3s2)nc1 [Glesatinib] (top concentration 2500 nM)  14.1
17. COc1ccc(S(=O)(=O)Nc2cccnc2Nc2ccc(O)cc2)cc1 [ABT-751] (top concentration 10000 nM)  14.7
18. CNC(=O)c1cc(Oc2ccc(NC(=O)Nc3ccc(Cl)c(C(F)(F)F)c3)cc2)ccn1 [Sorafenib] (top concentration 1000 nM)  15.1
19. COc1cc2c(Oc3ccc(NC(=O)C4(C(=O)Nc5ccc(F)cc5)CC4)cc3F)ccnc2cc1OCCCN1CCOCC1 [Foretinib] (top concentration 1000 nM)  20.9

Tested on: TANOUE
Experiment: as above
Settings: 72 h

In order of rising “selective drug sensitivity score” value:
1. CC(C)C[C@H](NC(=O)CNC(=O)c1cc(Cl)ccc1Cl)B(O)O [Ixazomib] (top concentration 1000 nM)  -6.64
2. CC(C)c1cc(C(=O)N2Cc3ccc(CN4CCN(C)CC4)cc3C2)c(O)cc1O [Onalespib] (top concentration 2500 nM)  -6.48
3. CCN1C(=O)CNc2ncc(-c3ccc(-c4nc[nH]n4)nc3C)nc21 [CC-115] (top concentration 10000 nM)  -5.46
4. CCN(CC)Cc1ccc2cc(COC(=O)Nc3ccc(C(=O)NO)cc3)ccc2c1 [Givinostat] (top concentration 1000 nM)  -4.5
5. COc1cc2c(Oc3ccc(NC(=O)C4(C(=O)Nc5ccc(F)cc5)CC4)cc3F)ccnc2cc1OCCCN1CCOCC1 [Foretinib] (top concentration 1000 nM)  -4.46
6. N[C@@H]1CCCN(c2c(/C=C3\SC(=O)NC3=O)cccc2-c2ccccc2)C1 [AZD1208] (top concentration 10000 nM)  -4.1
7. COc1ccc(S(=O)(=O)Nc2cccnc2Nc2ccc(O)cc2)cc1 [ABT-751] (top concentration 10000 nM)  -3.48
8. Cc1cc(Nc2ncc(Cl)c(Nc3ccccc3S(=O)(=O)C(C)C)n2)c(OC(C)C)cc1C1CCNCC1 [Ceritinib] (top concentration 2500 nM)  -3.44
9. COc1cc(N2CCC(N3CCN(C)CC3)CC2)ccc1Nc1ncc(Cl)c(Nc2ccccc2P(C)(C)=O)n1 [Brigatinib] (top concentration 1000 nM)  -3.34
10. Cn1nccc1Nc1nccc(-c2ccn([C@H](CO)c3ccc(Cl)c(F)c3)c(=O)c2)n1 [Ravoxertinib] (top concentration 10000 nM)  -3.2
11. Cc1nc(Nc2ncc(C(=O)Nc3c(C)cccc3Cl)s2)cc(N2CCN(CCO)CC2)n1 [Dasatinib] (top concentration 1000 nM)  -2.8
12. CN1CCN(c2nc(C3=C(c4c[nH]c5ccccc45)C(=O)NC3=O)c3ccccc3n2)CC1 [Sotrastaurin] (top concentration 10000 nM)  -2.3
13. CC1=NN(c2ccc(C(=O)O)cc2)C(=O)C1=Cc1ccc(-c2cc(C)c(C)cc2[N+](=O)[O-])o1 [C646] (top concentration 25000 nM)  -2.06
14. COCCNCc1ccc(-c2cc3nccc(Oc4ccc(NC(=S)NC(=O)Cc5ccc(F)cc5)cc4F)c3s2)nc1 [Glesatinib] (top concentration 2500 nM)  -1.96
15. COc1cc(Nc2ncc(F)c(Nc3ccc4c(n3)N(COP(=O)(O)O)C(=O)C(C)(C)O4)n2)cc(OC)c1OC [Fostamatinib] (top concentration 2500 nM)  -1.94
16. Cn1cnc2c(F)c(Nc3ccc(Br)cc3F)c(C(=O)NOCCO)cc21 [Binimetinib] (top concentration 1000 nM)  -0.82
17. C=CC(=O)N1CCC[C@@H](n2nc(-c3ccc(Oc4ccccc4)cc3)c3c(N)ncnc32)C1 [Ibrutinib] (top concentration 1000 nM)  0
18. CNC(=O)c1cc(Oc2ccc(NC(=O)Nc3ccc(Cl)c(C(F)(F)F)c3)cc2)ccn1 [Sorafenib] (top concentration 1000 nM)  0
19. Sc1ncnc2nc[nH]c12 [Mercaptopurine] (top concentration 10000 nM)  7.2
